Reference: article PMC9636434, “Discovery of small molecule agonists of the Relaxin Family Peptide Receptor 2” (Communications Biology, 2022)
Where “and” joins values, the source holds several entries; their conditions need not be identical. Equal entries are not always repeated. Where two headings read alike, the source gives them in different places.

Assays:
[1] = Pharmacokinetic study, single 30 mg/kg IP dose, plasma, liver and bone; format: in vivo, mouse; design: levels in plasma, liver, and bone: scale not given here
Protocol: The concentration of compound in plasma, liver, and long bones was detected using liquid chromatography tandem mass spectrometry (LC-MS/MS). Samples were collected after a single intraperitoneal (IP) administration at 30 mg/kg, a single intravenous (IV) administration at 3 mg/kg, a single oral (PO) administration at 10 mg/kg, and a daily PO administration for 3 consecutive days at 10 mg/kg. The compound was formulated in 75% PEG300 + 25% of 40% aq. HPBCD for IV and PO administration and in 60% Phosal + 40% PEG300 for IP administration. All tissue samples were homogenized in water at a tissue weight to water volume ratio 1:3.
single dose IP administration. a Plasma, b liver and c bone profiles in female mice.
The actual concentration (ng/g) is the detected value (ng/mL) multiplied by 4. Drug
vehicle is 60% Phosal : 40% PEG300. 3 mice were used per time point. Results are
expressed as the mean ± SEM.

human RXFP4 = target: T1, human RXFP4 (Homo sapiens, UniProt Q8TDU9); assay: GloSensor cAMP assay in RXFP4 transiently transfected HEK293T cells; format: cell-based; conditions: for RLU (cAMP, raw): RXFP4, 0.1 µM isoproterenol, replicates (1)-(4)
T1 construct: host or cells: HEK293T (transient)

RXFP2 = RXFP2 (Homo sapiens, UniProt Q8WXD0); assay: PRESTO-Tango β-arrestin recruitment, RXFP2; format: cell-based; design: host or cells: HTLA (transient); conditions: 10 µM compound
Protocol: β-arrestin is an important GPCR adaptor protein that mediates several receptor processes including signaling, desensitization, and trafficking. The PRESTO-Tango GPCRome assay was further used to test specificity and selectivity of lead RXFP2 agonists 6641 and 4337. GPCR-mediated β-arrestin recruitment for a panel of 320 human GPCRs was studied in transiently transfected HTLA cells treated with 10 µM compound. The results for all 320 GPCRs tested are summarized in Supplementary Data 1. […] ADORA1 activation by an agonist results in Gαi protein binding, an inhibition of adenylate cyclase and, therefore, a decrease in the cAMP concentration.
To further investigate possible off-target effects of small molecule agonists of RXFP2 on GPCRs, we performed a PRESTO-Tango assay of 320 GPCRs to detect β-arrestin recruitment to the receptors after treatment with our compounds. […] This might be beneficial in clinical applications, as it potentially reduces the amount of drug needed to induce a biological response for this target, even in cells with low receptor expression. It should be noted also that a PRESTO-Tango assay is not designed to detect inhibitors of β-arrestin recruitment.
The PRESTO-Tango GPCRome assay was used to perform a HTS of related GPCRs to study specificity and selectivity of the RXFP2 agonists by measuring β-arrestin translocation activity. […]

[2] = IP, Time 12 h, individual values (1)-(3)
[3] = female, C57BL/6J, mouse, liver, ip, 30 mg/kg, IP, individual values (1)-(3), read-out: Liver concentration
[4] = female, C57BL/6J, mouse, plasma, ip, 30 mg/kg, IP, individual values (1)-(3), read-out: Plasma concentration
[5] = single 30 mg/kg IP, female mice

T1 sequence (Q8TDU9 whole entry): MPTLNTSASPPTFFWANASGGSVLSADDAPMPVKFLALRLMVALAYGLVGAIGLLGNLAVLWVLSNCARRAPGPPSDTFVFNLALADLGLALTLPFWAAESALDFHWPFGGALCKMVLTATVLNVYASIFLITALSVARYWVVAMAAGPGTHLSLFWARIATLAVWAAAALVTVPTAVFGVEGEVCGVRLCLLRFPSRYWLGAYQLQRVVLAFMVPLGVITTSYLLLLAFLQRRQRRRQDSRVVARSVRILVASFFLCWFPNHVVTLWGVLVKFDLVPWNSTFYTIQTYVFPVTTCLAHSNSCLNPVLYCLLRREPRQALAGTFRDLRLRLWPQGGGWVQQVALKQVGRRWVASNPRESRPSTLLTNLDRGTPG
Chain of RXFP2 (Q8WXD0 whole entry): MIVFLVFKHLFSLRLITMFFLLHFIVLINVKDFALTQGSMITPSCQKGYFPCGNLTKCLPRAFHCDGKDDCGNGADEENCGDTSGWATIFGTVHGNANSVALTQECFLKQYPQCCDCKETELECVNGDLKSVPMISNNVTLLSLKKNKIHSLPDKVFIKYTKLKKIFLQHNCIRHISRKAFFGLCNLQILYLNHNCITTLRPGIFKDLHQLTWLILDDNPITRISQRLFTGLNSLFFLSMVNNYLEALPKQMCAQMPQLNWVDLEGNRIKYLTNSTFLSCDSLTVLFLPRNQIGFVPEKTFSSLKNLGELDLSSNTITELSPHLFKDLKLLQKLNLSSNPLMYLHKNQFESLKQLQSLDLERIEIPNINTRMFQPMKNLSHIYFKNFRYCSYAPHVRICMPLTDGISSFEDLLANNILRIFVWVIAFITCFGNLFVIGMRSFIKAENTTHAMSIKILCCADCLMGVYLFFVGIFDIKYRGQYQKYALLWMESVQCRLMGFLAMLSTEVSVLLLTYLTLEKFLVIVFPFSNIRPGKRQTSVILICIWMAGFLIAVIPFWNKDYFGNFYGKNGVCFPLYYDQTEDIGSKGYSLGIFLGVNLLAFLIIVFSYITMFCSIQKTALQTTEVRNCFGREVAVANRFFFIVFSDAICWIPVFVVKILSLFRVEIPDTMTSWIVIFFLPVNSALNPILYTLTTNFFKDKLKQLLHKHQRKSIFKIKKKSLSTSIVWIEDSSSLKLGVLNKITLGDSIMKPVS

Q: With `O=C1Nc2ccc(-c3cc(C(F)(F)F)cc(C(F)(F)F)c3)cc2C(=O)N2CCN(C(=O)COc3ccc(OC(F)(F)F)cc3I)C[C@@H]12` [compound 6641] as the compound, how does the Plasma concentration ([1]; IP, Time 8 h, individual values (1)-(3)) read?
A: Its Plasma concentration is 3.04 µg/mL and 3.01 µg/mL.

Q: And the Bone concentration [1, 2]?
A: Its Bone concentration is 1716 ng/g and 1458 ng/g.

Q: And the Liver concentration [1, 2]?
A: Its Liver concentration is 18480 ng/g and 15600 ng/g.

Q: And the Plasma concentration [1, 2]?
A: Its Plasma concentration is 3.93 µg/mL and 2.63 µg/mL.

Q: What about the concentration at 2 h ([1]; female, C57BL/6 J, mouse, bone, ip, 30 mg/kg, IP, individual values (1)-(3), read-out: Bone concentration) of the same compound?
A: Its concentration at 2 h is 492 ng/g.

Q: What about the concentration at 12 h ([1]; female, C57BL/6J, mouse, bone, ip, 30 mg/kg, IP, Time 12 h, individual values (1)-(3), read-out: Bone concentration) of the same compound?
A: The concentration at 12 h was 2830 ng/g.

Q: What about the concentration at 0.083 h [1, 3] of the same compound?
A: The concentration at 0.083 h was 1060 ng/g.

Q: And the concentration at 0.25 h [1, 3]?
A: Its concentration at 0.25 h is 1800 ng/g.

Q: And the concentration at 1 h [1, 3]?
A: The concentration at 1 h was 4920 ng/g.

Q: What about the concentration at 12 h ([1]; female, C57BL/6J, mouse, liver, ip, 30 mg/kg, IP, Time 12 h, individual values (1)-(3), read-out: Liver concentration) of the same compound?
A: The concentration at 12 h was 13600 ng/g.

Q: And the concentration at 0.5 h ([1]; female, C57BL/6J, mouse, liver, ip, 30 mg/kg, Time 0.5 h, individual values (1)-(3))?
A: Its concentration at 0.5 h is 3040 ng/g.

Q: And the concentration at 4 h ([1]; female, C57BL/6J, mouse, liver, ip, 30 mg/kg, Time 4 h, individual values (1)-(3))?
A: The concentration at 4 h was 11000 ng/g.

Q: And the concentration at 0.083 h [1, 4]?
A: Its concentration at 0.083 h is 0.0609 µg/mL.

Q: And the concentration at 0.25 h [1, 4]?
A: The concentration at 0.25 h was 0.132 µg/mL.

Q: What about the concentration at 1 h [1, 4] of the same compound?
A: Its concentration at 1 h is 0.627 µg/mL.

Q: And the concentration at 2 h [1, 4]?
A: Its concentration at 2 h is 1.16 µg/mL.

Q: And the concentration at 12 h ([1]; female, C57BL/6J, mouse, plasma, ip, 30 mg/kg, IP, Time 12 h, individual values (1)-(3), read-out: Plasma concentration)?
A: Its concentration at 12 h is 2.75 µg/mL.

Q: What about the concentration at 8 h ([1]; female, C57BL/6J, mouse, plasma, ip, 30 mg/kg, Time 8 h, individual values (1)-(3)) of the same compound?
A: The concentration at 8 h was 2.19 µg/mL.

Q: And the “duration of stable levels in plasma, liver, and bone” value [1, 5]?
A: Its value is “at least 12 h”.

Q: What about the “levels in plasma, liver, and bone” value [1, 5] of the same compound?
A: The value was “single/double digit”.

Q: What about the “RLU (cAMP, raw)” value (human RXFP4; Log [M] -4.52) of the same compound?
A: Its value is 2463.26 RLU and 2323.36 RLU and 2574.77 RLU and 2436.25 RLU.

Q: What about the “RLU (cAMP, raw)” value (human RXFP4; Log [M] -5) of the same compound?
A: Its value is 3185.64 RLU and 3376.11 RLU and 2670.35 RLU and 2223.62 RLU.

Q: What about the “RLU (cAMP, raw)” value (human RXFP4; Log [M] -5.52) of the same compound?
A: The value was 2765.92 RLU and 2530.44 RLU and 2513.13 RLU and 2428.63 RLU.

Q: What about the “RLU (cAMP, raw)” value (human RXFP4; Log [M] -6) of the same compound?
A: The value was 3247.28 RLU and 3052.66 RLU and 2557.45 RLU and 2549.14 RLU.

Q: What about the “RLU (cAMP, raw)” value (human RXFP4; Log [M] -6.52) of the same compound?
A: The value was 2853.88 RLU and 2734.06 RLU and 2619.79 RLU and 2767.31 RLU.

Q: What about the “RLU (cAMP, raw)” value (human RXFP4; Log [M] -7) of the same compound?
A: Its value is 2986.17 RLU and 3107.38 RLU and 2961.24 RLU and 2947.39 RLU.

Q: And the “RLU (cAMP, raw)” value (human RXFP4; Log [M] -7.52)?
A: Its value is 3270.14 RLU and 3165.55 RLU and 2781.16 RLU and 2887.13 RLU.

Q: What about the “RLU (cAMP, raw)” value (human RXFP4; Log [M] -8) of the same compound?
A: Its value is 3594.97 RLU and 2898.21 RLU and 2737.53 RLU and 2621.17 RLU.

Q: And the “RLU (cAMP, raw)” value (human RXFP4; Log [M] -8.52)?
A: The value was 2962.83 RLU and 3046.77 RLU and 3010.47 RLU and 2788.15 RLU.

Q: What about the “RLU (cAMP, raw)” value (human RXFP4; Log [M] -9) of the same compound?
A: Its value is 3689.54 RLU and 3613.16 RLU and 3120.12 RLU and 2641.44 RLU.

Q: What about the “RLU (cAMP, raw)” value (human RXFP4; Log [M] -9.52) of the same compound?
A: The value was 3253.97 RLU and 3351.52 RLU and 2965.85 RLU and 3151.88 RLU.

Q: What about the “RLU (cAMP, raw)” value (human RXFP4; Log [M] -10) of the same compound?
A: Its value is 3784.82 RLU and 3051.3 RLU and 3541.33 RLU and 3042.99 RLU.

Q: What about the “RLU (cAMP, raw)” value (human RXFP4; Log [M] -10.52) of the same compound?
A: Its value is 2937.88 RLU and 2859.99 RLU and 3018.03 RLU and 2959.05 RLU.

Q: And the “RLU (cAMP, raw)” value (human RXFP4; Log [M] -11)?
A: The value was 3244.89 RLU and 3354.54 RLU and 2788.9 RLU and 3100.46 RLU.

Q: What about the “RLU (cAMP, raw)” value (human RXFP4; Log [M] -11.52) of the same compound?
A: Its value is 3393.86 RLU and 2984 RLU and 2869.06 RLU and 2844.86 RLU.

Q: What about the “RLU (cAMP, raw)” value (human RXFP4; Log [M] -12) of the same compound?
A: Its value is 3689.54 RLU and 3235.82 RLU and 3343.96 RLU and 2573.39 RLU.

Q: And the “activation of RXFP4 (cAMP inhibition)” value (human RXFP4; cAMP induced by 0.1 µM isoproterenol)?
A: The value was “does not activate”.

Q: What about the “RXFP2-mediated β-arrestin recruitment” value (RXFP2) of the same compound?
A: Its value is “not detected”.
